How the values were obtained:
[1] = test system: primary human intestinal organoids; assay: Primary human intestinal organoids, TNF-α (40 ng/mL) induced inflammation, mRNA panel of inflammation factors by qPCR
[2] = test system: ex vivo colon tissue samples; assay: Ex-vivo human colon tissue model, TNF-α stimulus, Proteome Profiler Human XL Cytokine Array; assay type: cell-based; settings: TNF-α 60 min then 10 mM for 24 hours, versus TNF-α alone
Method: To induce inflammation, explants are incubated with 100 μl of inflammatory stimulus (TNF-α 15 μg/ml) in 96-well U-bottom sterile plates. Incubate explants for one hour with […] of complete medium (DMEM containing FCS, L-glutamine and antibiotics). […] Tissue explants are then cultured at 37° C. in an atmosphere containing 5% CO2 for 24 hours. Negative controls are tissue explants cultured without stimulus nor candidate compounds (add 200 μl of complete medium). Positive controls are explants treated only with inflammatory stimulus. Following culture, remove tissue explants from culture wells, spin down plates and harvest 180 μl of the culture supernatant. Freeze supernatants and tissue explants at −80° C. Proceed to quantification of analytes of interest in supernatants and/or tissue explants. A Proteome Profiler™ Array was used to measure the relative abundance of a larger set of proteins and cytokines involved in the immune response. The experimental conditions and the preparation of the colon tissue samples was the same as described above. The Human XL Cytokine Array Kit (www.rndsystems.com), Catalog Number ARY022 was used for this experiment. Cytokines, chemokines and growth factors are extracellular signaling molecules that mediate cell to cell communication. These molecules are released from cells and have critical roles in many biological processes such as cellular growth, differentiation, gene expression, migration, immunity and inflammation. In most biological processes, multiple cytokines operate in a large network, where the action of one cytokine is regulated by the presence or absence of other cytokines. The Human XL Cytokine Array Kit is a rapid, sensitive, and economic tool to simultaneously detect cytokine differences between samples. The relative expression levels of 102 human soluble proteins can be determined without performing numerous immunoassays. Capture and control antibodies have been spotted in duplicate on nitrocellulose membranes. […]

[3] = test system: ex vivo colon tissue samples; assay: Ex-vivo human colon tissue model, TNF-α stimulus, protein in culture supernatants by Luminex; assay type: cell-based
Text: Colorectal specimens can be obtained from surgical resections of intestinal tissue or from biopsies, after receiving signed informed consent from the patients. Following resection of tissue, specimens are kept in a specimen collection pot containing DMEM for transportation to the laboratory. Put the specimen in a Petri plate with some medium. Strip the muscle from the resected specimen with sterile scalpel. Transfer the remaining tissue into a new Petri plate with medium and cut the tissue into explants comprising both epithelial and muscularis mucosae (Berry […]. Methods Mol. Biol. 2011; 665: 133-60). Proceed to assay. To induce inflammation, explants are incubated with 100 μl of inflammatory stimulus (TNF-α 15 μg/ml) in 96-well U-bottom sterile plates. Incubate explants for one hour with […] of complete medium (DMEM containing FCS, L-glutamine and antibiotics). […] Tissue explants are then cultured at 37° C. in an atmosphere containing 5% CO2 for 24 hours. Negative controls are tissue explants cultured without stimulus nor candidate compounds (add 200 μl of complete medium). Positive controls are explants treated only with inflammatory stimulus. Following culture, remove tissue explants from culture wells, spin down plates and harvest 180 μl of the culture supernatant. Freeze supernatants and tissue explants at -80° C. Proceed to quantification of analytes of interest in supernatants and/or tissue explants. The Luminex method was used to determine protein concentration in culture supernatants: Luminex Protocol: In house assay was conducted by Dr Carolina Herrera at St Mary's Hospital, Paddington, London. Luminex Assay Buffer: PBS, goat serum, mouse serum, Tween 20, Tris pH 7-8. Luminex Wash Buffer: PBS, Tween-20. Procedure: […] Relative protein level [ng/mL] was determined using a standard curve.

[4] = test system: primary human intestinal organoids; assay: Primary human intestinal organoids, TNFα (40 ng/mL) induced inflammation, mRNA of NF-κB and TNFα by qPCR; assay type: cell-based; settings: 10 μM, 18 hours
[5] = test system: IL-23; assay: Primary human intestinal organoids, TNF-α (60 ng/mL), IL-23 mRNA at increasing concentrations, qPCR; assay type: cell-based; settings: 24 hours; for impact on IL-23 expression compared with butyrate: at 10-100 μM
Method: Primary human intestinal organoids were cultured for 8 weeks prior to experiments as described in […] et al. (2013) Stem Cell Reports.

[6] = TNF-α 40 ng/mL, sodium salts at 10 μM, 18 hours, versus TNF-α alone
[7] = TNF-α 60 min then 10 mM for 24 hours, versus TNF-α alone
[8] = ex vivo colon tissue, data not shown

## (R)-3-hydroxybutyrate [(R)-3-HB]
[1]; [6]
  mRNA expression of IL-6: decreased
  mRNA expression of IL-23: decreased
  mRNA expression of NF-κβ: decreased
  mRNA expression of TNF-α: decreased
  mRNA expression of anti-inflammatory cytokine IL-10: increased
  mRNA expression of anti-inflammatory cytokine TGF-β1: increased
[1]; organoids, data not shown
  effect on major protective regulators of intestinal inflammation compared with butyrate: greater inducing effect
  effect on multiple pro-inflammatory regulators of IBD compared with butyrate: greater reducing effect
[2]
  protein concentration of IL-23 (relative abundance, non-quantitative): decreased
  protein concentration of MMP9 (relative abundance, non-quantitative): decreased
  protein concentration of TNF-α (relative abundance, non-quantitative): decreased
[3]; [7]
  protein concentration of IL-1β: decreased
  protein concentration of IL-6: decreased
  protein concentration of IL-12: decreased
  protein concentration of anti-inflammatory cytokine IL-10: increased
[3]; [8]
  effect on major protective regulators of intestinal inflammation compared with butyrate: greater inducing effect
  effect on multiple pro-inflammatory regulators of IBD compared with butyrate: greater reducing effect
[4]
  mRNA expression of NF-κB: decreased
  mRNA expression of TNF-α: decreased
[5]
  impact on IL-23 expression compared with butyrate: greater reducing impact
[5]; listed as (R)-3HB
  impact on IL-23 expression compared with butyrate: greater reducing effect
[5]; sodium salts
  concentrations effective at reducing expression of IL-23: 10 to 100 µM

Reference: US10987325B2, “Compositions and uses thereof for treating inflammatory diseases and probiotic compositions” (CHAIN Biotechnology Limited, priority 2016, dated 2021)
